Measured values published in publication PMC9655618 (Cancers, 2022).
Read-outs that look alike come from different tables or passages of the source.

Tests used:
Hs-578T cells = test: MTT cell viability assay; type: cell-based, human; settings: 72 h, 10%FBS growth media
Procedure: (§1) Straightforward, the tetrazolium salt 3-(4,5-methyltiazol-2yl-)-2,5diphenyl-tetrazolium bromide (MTT) (Applichen, Darmstadt, Germany) was added to cells, incubated for 2–4 h at 37 °C, and lysed in 10% SDS.

Ishikawa cells = test: MTT cell viability assay; type: cell-based, human; settings: read-out: IC50 (μM) ISHIKAWA, 72 h, 10%FBS growth media
Procedure: as §1

MCF-7 cells = test: MTT cell viability assay; type: cell-based, human; settings: 10%FBS growth media
Procedure: as §1

MDA-MB-231 cells = test: MTT cell viability assay; type: cell-based, human; settings: 10%FBS growth media
Procedure: as §1

SK-BR-3 cells = test: MTT cell viability assay; type: cell-based, human; settings: 10%FBS growth media
Procedure: as §1

T47D cells = test: MTT cell viability assay; type: cell-based, human; settings: 72 h, 10%FBS growth media
Procedure: Straightforward, the tetrazolium salt 3-(4,5-methyltiazol-2yl-)-2,5diphenyl-tetrazolium bromide (MTT) (Applichen, Darmstadt, Germany) was added to cells, incubated for 2–4 h at 37 °C, and lysed in 10% SDS. The mitochondrial metabolization of the tetrazolium salt was determined by the analysis of the optical density at 595 nm, measured with the iMark microplate Reader (Bio–Rad, Irvine, CA, USA).

[1] = test system: ERα-mediated transcription (3xERE-luciferase), T47D-KBluc cells; test: ER-dependent transcriptional activity, 3xERE-luciferase reporter in T47D-KBluc cells; settings: for effect on E2-induced luciferase activity: until dropping to 20% Emax
MCF-10A cells = test: MTT cell viability assay; type: cell-based, human; settings: 72 h, 10%FBS growth media
Procedure: as §1

VERO cells = test: MTT cell viability assay; type: cell-based, monkey; settings: 72 h, 10%FBS growth media
Procedure: as §1

[2] = test system: T47D estrogen-depleted cells; test: E2-induced proliferation of estrogen-depleted cells (AUC of growth kinetics); type: cell-based; settings: for EC50: Homo sapiens, T47D, 240 h, read-out: AUC (%) EC50 (μM)
Procedure: To monitor long-term growth, human ER+ BC (T47-D, MCF-7, MCF-7/BUS), ER+ endometrial (Ishiwaka, High Point, NC, USA), or non-malignant breast (MCF-10A) cells were seeded at 3000–6000 cells per well. […] When indicated, cells were estrogen-deprived in a 10DCC-FBS supplemented medium for one week. […] Cytotoxicity was monitored by using YOYO-1 (Invitrogen, Waltham, MA, USA). Cell proliferation and cytotoxicity were monitored by sequential real-time microphotographs in an IncuCyte HD real-time imaging system (Essen BioScience, Hertfordshire, UK) for 5–10 days. The area under the curve (AUC) was then analyzed to know both the kinetics and dose-effect relationships. […] Next, cells were treated with VEH (0.05% DMSO) or test compounds for 5–10 days. Spheroid size and cell cytotoxicity were recorded with the Incucyte SX5 Live-Cell Analysis Instrument (Sartorius AG, Göttingen, Germany). To calculate the spheroid growth area, confluence measurements were taken considering the largest brightfield object area (µm^2). Cytotoxicity was monitored by using YOYO-1 (Essen Bioscience, Hertfordshire, UK).

[3] = test system: alkaline phosphatase (ALP) activity in Ishikawa cells; test: Alkaline phosphatase assay; type: cell-based, human; settings: E2 10 nM
Procedure: Human endometrium cells ([…]) were cultured in MEM without phenol red with Earle's Salts culture, which was supplemented with estrogen-deprived 10 DCC-FBS du-ring 5 days. […] Cells were washed with ice-cold PBS, and Alkaline Phosphatase (ALP) activity was measured by using ALP Assay Kit (Abcam, Cambridge, MA, USA). The substrate p-nitrophenyl phosphate (pNPP) and the ALP enzyme were used to detect ALP activity by the analysis of the optical density at 405 nm in the iMark microplate Reader (Bio-Rad, Irvine, CA, USA). […] Protein concentration was quantified with the bicinchoninic acid assay (BCA) kit (Bio-Rad).

BT-549 cells = test: MTT cell viability assay; type: cell-based, human; settings: 10%FBS growth media
Procedure: as §1

MCF-7/BUS cells = test: MTT cell viability assay; type: cell-based, human; settings: 72 h, read-out: IC50 (μM) MCF-7/BUS
Procedure: as §1

[4] = test system: ERα, pS2 and PR mRNA in Ishikawa cells; test: Quantitative real-time PCR of ERα-regulated genes; type: cell-based, human; settings: 3 h pretreatment, E2 10 nM 24 h
Procedure: (§2) For gene expression analysis, MCF-7 and Ishikawa cells were deprived of steroid hormones by using a 10DCC-FBS medium for five days. Then, 1,500,000 cells/dish were seeded in 5DCC-FBS, followed by treatment with test compounds. Total RNA was isolated by using TRItidy G™ (Panreac Applichem ITW Reagents, Darmstadt, Germany). The concentration and purity of RNA were determined with a NanoDrop 1000 spectrophotometer (Wilmington, NC, USA). Then, 1 µg of total RNA was reversed and amplified with the iScriptTM kit (Bio-Rad) following the manufacturer’s protocol. SYBR Green PCR Master mix (Applied Biosystems, Bedford, MA, USA) reagent and exon-specific primers for ERα were used for Real-time quantitative PCR (qPCR). Gene expression was analyzed with an Mx3005P qPCR System (Agilent, Santa Clara, CA, USA), and cycle threshold values were calculated using MxPro qPCR Software (Agilent, CA, USA). Target gene expression was normalized to the expression of the 18S housekeeping gene. Data were expressed as relative expression values according to the comparative CT method for qPCR [42].

[5] = test system: ERα, pS2 and PR mRNA in MCF-7 cells; test: Quantitative real-time PCR of ERα-regulated genes; type: cell-based, human; settings: 3 h pretreatment, E2 10 nM 24 h; 32 5 µM, 35 10 µM, ICI 0.1 µM, 4-OHTAM 1 µM
Procedure: as §2

[6] = test system: glucocorticoid receptor (GR)-dependent transcriptional activity, MDA-kb2 cells; test: GR-mediated transcription, luciferase reporter in MDA-kb2 cells (dexamethasone); settings: DEX 100 nM

## O=C1C(c2ccc3c(c2)OCO3)=CC(O)(c2ccccc2)N1Cc1ccccc1 (stereo not drawn) [compound 26, 3-(benzo[d][1,3]dioxol-5-yl)-1-benzyl-5-hydroxy-5-phenyl-1H-pyrrol-2(5H)-one]
Hs-578T cells; Homo sapiens, Hs-578T
  IC50: > 10 µM
Ishikawa cells; Homo sapiens, Ishikawa
  IC50: 10.1 ± 0.11 µM
MCF-7 cells; Homo sapiens, MCF7, 72 h
  IC50: > 10 µM
MDA-MB-231 cells; Homo sapiens, MDA-MB-231, 72 h
  IC50: 9.71 ± 0.3 µM
SK-BR-3 cells; Homo sapiens, SK-BR-3, 72 h
  IC50: > 10 µM
T47D cells; Homo sapiens, T47D
  IC50: > 10 µM
[1]
  effect on E2-induced luciferase activity: reduced E2-induced luciferase activity

## O=C1C(c2ccccc2)=CC(O)(c2ccccc2)N1C1CCCCC1 (stereo not drawn) [compound 4, 1-cyclohexyl-5-hydroxy-3,5-diphenyl-1H-pyrrol-2(5H)-one]
Hs-578T cells; Homo sapiens, Hs-578T
  IC50: > 10 µM
Ishikawa cells; Homo sapiens, Ishikawa
  IC50: > 10 µM
MCF-10A cells; Homo sapiens, MCF-10A
  IC50: 7.17 ± 2.07 µM
MCF-7 cells; Homo sapiens, MCF7, 72 h
  IC50: > 10 µM
MDA-MB-231 cells; Homo sapiens, MDA-MB-231, 72 h
  IC50: > 10 µM
SK-BR-3 cells; Homo sapiens, SK-BR-3, 72 h
  IC50: > 10 µM
T47D cells; Homo sapiens, T47D
  IC50: > 10 µM
VERO cells; Primates, Vero
  IC50: > 25 µM
[1]
  effect on E2-induced luciferase activity: reduced E2-induced luciferase activity

## C[C@]12CC[C@@H]3c4ccc(O)cc4CC[C@H]3[C@@H]1CC[C@@H]2O [E2, 17β-estradiol, reference compound]
[2]
  EC50: 0.0071 nM
[3]
  increase of ALP activity: 30 fold
[1]; E2+VEH
  maximal activity (Emax) reached by E2: 104.90 ± 2.01%
[1]; Homo sapiens, read-out: EC50 of E2, ER-dependent transcriptional activity, E2 alone (E2+VEH)
  EC50: 4.48 ± 0.42 pM
[1]; Homo sapiens, read-out: maximal activity (Emax) reached by E2, E2+VEH
  Emax: 99.8 ± 8.44%
[1]; induced by E2
  maximal luciferase activity or Emax: 15.19 ± 1.71 fold induction
[1]; read-out: EC50 of E2, ER-dependent transcriptional activity, E2 alone (E2+VEH)
  EC50: 4.57 ± 0.42 pM

## C[C@]12CC[C@@H]3c4ccc(O)cc4C[C@@H](CCCCCCCCC[S+]([O-])CCCC(F)(F)C(F)(F)F)[C@H]3[C@@H]1CC[C@@H]2O (stereo partly drawn) [ICI, ICI-182,780, reference compound]
BT-549 cells; 72 h
  IC50: > 25 µM
Hs-578T cells
  IC50: > 25 µM
Ishikawa cells
  IC50: > 10 µM
MCF-10A cells
  IC50: > 10 µM
MCF-7 cells; 72 h
  IC50: 0.52 ± 0.16 µM
MCF-7/BUS cells; 10%FBS growth media, MTT
  IC50: 0.0006 µM
MDA-MB-231 cells; 72 h
  IC50: > 25 µM
SK-BR-3 cells; 72 h
  IC50: > 50 µM
T47D cells
  IC50: 14.9 ± 5.19 µM
VERO cells
  IC50: > 10 µM
[2]; presence of E2 (0.1 nM), 10 days
  IC50: 0.000283 µM
[4]
  effect on E2-induced mRNA expression: blocked E2-induced mRNA levels of PR and pS2
[5]
  effect on E2-induced mRNA expression: blocked E2-induced mRNA levels of PR and pS2
[1]; compounds 10 µM, 3 h pretreatment, then vehicle 16–24 h, relative to Emax of E2
  E/Emax (%) VEH: −9.15 ± 3.99%
[1]; read-out: IC50 (µM) on E2-induced luciferase activity, dose-response, 3 h pretreatment, then E2 0.1 nM 16–24 h
  IC50: 0.00019 µM
[1]; read-out: IC50 on E2-induced ER-dependent transcriptional activity, co-incubation with E2
  IC50: 0.0002 ± 8e-05 µM

## COc1ccc(C2=CC(O)(c3cccc([N+](=O)[O-])c3)N(Cc3ccccc3)C2=O)cc1 (stereo not drawn) [compound 40, 1-benzyl-5-hydroxy-3-(4-methoxyphenyl)-5-(3-nitrophenyl)-1H-pyrrol-2(5H)-one]
[1]
  effect on E2-induced luciferase activity: reduced E2-induced luciferase activity

## COc1ccc(N2C(=O)C(c3cccc([N+](=O)[O-])c3)=CC2(O)c2cccc(OC)c2)cc1 (stereo not drawn) [compound 38, 5-hydroxy-5-(3-methoxyphenyl)-1-(4-methoxyphenyl)-3-(3-nitrophenyl)-1H-pyrrol-2(5H)-one]
Hs-578T cells; Homo sapiens, Hs-578T
  IC50: > 10 µM
Ishikawa cells; Homo sapiens, Ishikawa
  IC50: > 10 µM
MCF-10A cells; Homo sapiens, MCF-10A
  IC50: > 10 µM
MCF-7 cells; Homo sapiens, MCF7, 72 h
  IC50: > 10 µM
MDA-MB-231 cells; Homo sapiens, MDA-MB-231, 72 h
  IC50: > 10 µM
SK-BR-3 cells; Homo sapiens, SK-BR-3, 72 h
  IC50: > 10 µM
T47D cells; Homo sapiens, T47D
  IC50: > 10 µM
VERO cells; Primates, Vero
  IC50: > 25 µM
[1]
  effect on E2-induced luciferase activity: reduced E2-induced luciferase activity

## COc1ccc(N2C(=O)C(c3ccccc3OC)=CC2(O)c2ccc([N+](=O)[O-])cc2)cc1 (stereo not drawn) [compound 50, 5-hydroxy-3-(2-methoxyphenyl)-1-(4-methoxyphenyl)-5-(4-nitrophenyl)-1H-pyrrol-2(5H)-one]
MCF-7 cells; Homo sapiens, MCF7, 72 h
  IC50: 6.17 ± 2.66 µM
SK-BR-3 cells; Homo sapiens, SK-BR-3, 72 h
  IC50: > 10 µM
[1]
  effect on E2-induced luciferase activity: reduced E2-induced luciferase activity

## COc1ccc(C2=CC(O)(c3ccccc3)N(C3CCCCC3)C2=O)cc1F (stereo not drawn) [compound 16, 1-cyclohexyl-3-(3-fluoro-4-methoxyphenyl)-5-hydroxy-5-phenyl-1H-pyrrol-2(5H)-one]
BT-549 cells; Homo sapiens, BT-549, 72 h
  IC50: > 10 µM
Hs-578T cells; Homo sapiens, Hs-578T
  IC50: > 10 µM
Ishikawa cells; Homo sapiens, Ishikawa
  IC50: > 10 µM
MCF-7 cells; Homo sapiens, MCF7, 72 h
  IC50: > 10 µM
MCF-7/BUS cells; Homo sapiens, MCF7/BUS
  IC50: > 10 µM
MDA-MB-231 cells; Homo sapiens, MDA-MB-231, 72 h
  IC50: > 10 µM
SK-BR-3 cells; Homo sapiens, SK-BR-3, 72 h
  IC50: > 10 µM
T47D cells; Homo sapiens, T47D
  IC50: > 10 µM
[1]; 10 μM, absence of E2
  estrogenic effect on ER-dependent transcriptional activity: partial induction of ER-dependent transcriptional activity

## C[C@@H]1C[C@H]2[C@@H]3CCC4=CC(=O)C=C[C@]4(C)[C@@]3(F)[C@@H](O)C[C@]2(C)[C@@]1(O)C(=O)CO [DEX, dexamethasone, reference compound]
[6]
  maximal luciferase activity or Emax: 42.07 ± 14.33 fold induction

## COc1ccc(C2(O)C=C(c3ccccc3)C(=O)N2Cc2ccccc2)cc1 (stereo not drawn) [compound 8, 1-benzyl-5-hydroxy-5-(4-methoxyphenyl)-3-phenyl-1H-pyrrol-2(5H)-one]
[1]
  effect on E2-induced luciferase activity: reduced E2-induced luciferase activity

## CCCc1c(-c2ccc(O)cc2)nn(-c2ccc(O)cc2)c1-c1ccc(O)cc1 [PPT, 1,3,5-tris(4-hydroxyphenyl)-4-propyl-1H-pyrazole, reference compound]
[2]
  EC50: 0.157 nM

## COc1cccc(C2=CC(O)(c3ccc([N+](=O)[O-])cc3)N(Cc3ccccc3)C2=O)c1 (stereo not drawn) [compound 46, 1-benzyl-5-hydroxy-3-(3-methoxyphenyl)-5-(4-nitrophenyl)-1H-pyrrol-2(5H)-one]
[1]
  effect on E2-induced luciferase activity: reduced E2-induced luciferase activity

## COc1ccc(N2C(=O)C(c3ccccc3)=CC2(O)c2ccc(OC)cc2)cc1 (stereo not drawn) [compound 9, 5-hydroxy-1,5-bis(4-methoxyphenyl)-3-phenyl-1H-pyrrol-2(5H)-one]
BT-549 cells; Homo sapiens, BT-549, 72 h
  IC50: > 10 µM
Hs-578T cells; Homo sapiens, Hs-578T
  IC50: > 10 µM
MCF-7 cells; Homo sapiens, MCF7, 72 h
  IC50: > 10 µM
MCF-7/BUS cells; Homo sapiens, MCF7/BUS
  IC50: > 10 µM
MDA-MB-231 cells; Homo sapiens, MDA-MB-231, 72 h
  IC50: > 10 µM
SK-BR-3 cells; Homo sapiens, SK-BR-3, 72 h
  IC50: > 10 µM
T47D cells; Homo sapiens, T47D
  IC50: > 10 µM
